Reference: paper PMC11887051, “Discovery of ONO-2920632 (VU6011887): A Highly Selective and CNS Penetrant TREK-2 (TWIK-Related K+ Channel 2) Preferring Activator In Vivo Tool Compound” (ACS Chemical Neuroscience, 2025)

Legend:
[1] = target: T1, TREK-1 (Homo sapiens, UniProt O95069); test: manual patch clamp (MPC) assay, TREK-1, species not stated; type: cell-based
T1 sequence (O95069 1-426): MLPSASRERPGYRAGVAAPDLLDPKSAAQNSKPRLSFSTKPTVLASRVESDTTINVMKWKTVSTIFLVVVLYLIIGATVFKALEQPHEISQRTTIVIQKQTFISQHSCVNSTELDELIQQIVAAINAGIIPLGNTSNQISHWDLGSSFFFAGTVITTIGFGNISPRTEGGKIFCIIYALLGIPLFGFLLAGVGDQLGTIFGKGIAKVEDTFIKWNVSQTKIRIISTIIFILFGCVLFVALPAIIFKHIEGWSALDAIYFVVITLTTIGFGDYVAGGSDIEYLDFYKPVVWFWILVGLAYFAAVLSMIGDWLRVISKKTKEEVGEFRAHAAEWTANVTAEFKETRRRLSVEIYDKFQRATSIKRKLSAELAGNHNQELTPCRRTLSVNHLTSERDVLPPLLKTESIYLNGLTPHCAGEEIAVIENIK

[2] = target: Adrenergic β2 (Homo sapiens, UniProt P07550); test: Eurofins Lead Profiling radioligand binding; conditions: title: 30 μM
[3] = tested on: Phorbol Ester; test: Eurofins Lead Profiling radioligand binding; set-up: species or system Mouse; conditions: title: 30 μM
[4] = target: Prostanoid EP4 (Homo sapiens, UniProt P35408); test: Eurofins Lead Profiling radioligand binding; conditions: title: 30 μM
[5] = target: Transporter, Norepinephrine (NET) (Homo sapiens, UniProt P23975); test: Eurofins Lead Profiling radioligand binding; conditions: title: 30 μM
[6] = target: Muscarinic M1 (Homo sapiens, UniProt P11229); test: Eurofins Lead Profiling radioligand binding; conditions: title: 30 μM
[7] = target: Transporter, Dopamine (DAT) (Homo sapiens, UniProt Q01959); test: Eurofins Lead Profiling radioligand binding; conditions: title: 30 μM
[8] = target: T1, TREK-1; test: human 86Rb flux K2P selectivity panel; type: cell-based; conditions: data is not shown
[9] = target: Endothelin ETB (Homo sapiens, UniProt P24530); test: Eurofins Lead Profiling radioligand binding; conditions: title: 30 μM
[10] = target: Melatonin MT1 (Homo sapiens, UniProt P48039); test: Eurofins Lead Profiling radioligand binding; conditions: title: 30 μM
[11] = target: Neuropeptide Y Y1 (Homo sapiens, UniProt P25929); test: Eurofins Lead Profiling radioligand binding; conditions: title: 30 μM
[12] = target: Bradykinin B2 (Homo sapiens, UniProt P30411); test: Eurofins Lead Profiling radioligand binding; conditions: title: 30 μM
[13] = target: Adrenergic α1D (Homo sapiens, UniProt P25100); test: Eurofins Lead Profiling radioligand binding; conditions: title: 30 μM
[14] = target: Dopamine D4.2 (Homo sapiens, UniProt P21917, DEL265-296); test: Eurofins Lead Profiling radioligand binding; conditions: title: 30 μM
[15] = target: Adenosine A3 (Homo sapiens, UniProt P0DMS8); test: Eurofins Lead Profiling radioligand binding; conditions: title: 30 μM
[16] = target: Bradykinin B1 (Homo sapiens, UniProt P46663); test: Eurofins Lead Profiling radioligand binding; conditions: title: 30 μM
[17] = target: Adenosine A1 (Homo sapiens, UniProt P30542); test: Eurofins Lead Profiling radioligand binding; conditions: title: 30 μM
[18] = target: Leukotriene, Cysteinyl CysLT1 (Homo sapiens, UniProt Q9Y271); test: Eurofins Lead Profiling radioligand binding; conditions: title: 30 μM
[19] = target: hERG potassium channel (Homo sapiens, UniProt Q12809); test: Eurofins Lead Profiling radioligand binding; conditions: title: 30 μM
[20] = tested on: Glycine, Strychnine-Sensitive; test: Eurofins Lead Profiling radioligand binding; set-up: species or system Rat; conditions: title: 30 μM
[21] = target: Platelet Activating Factor (PAF) (Homo sapiens, UniProt P25105); test: Eurofins Lead Profiling radioligand binding; conditions: title: 30 μM
[22] = tested on: Glutamate, Kainate; test: Eurofins Lead Profiling radioligand binding; set-up: species or system Rat; conditions: title: 30 μM
[23] = target: Adrenergic α2A (Homo sapiens, UniProt P08913); test: Eurofins Lead Profiling radioligand binding; conditions: title: 30 μM
[24] = tested on: GABAA, Flunitrazepam, Central; test: Eurofins Lead Profiling radioligand binding; set-up: species or system Rat; conditions: title: 30 μM
[25] = target: Transporter, GABA (Rattus norvegicus, UniProt P23978); test: Eurofins Lead Profiling radioligand binding; conditions: title: 30 μM
[26] = tested on: Potassium Channel [KATP]; test: Eurofins Lead Profiling radioligand binding; set-up: species or system Hamster; conditions: title: 30 μM
[27] = tested on: Glutamate, NMDA, Phencyclidine; test: Eurofins Lead Profiling radioligand binding; set-up: species or system Rat; conditions: title: 30 μM
[28] = target: Histamine H3 (Homo sapiens, UniProt Q9Y5N1); test: Eurofins Lead Profiling radioligand binding; conditions: title: 30 μM
[29] = target: Calcium Channel N-Type (Rattus norvegicus, UniProt Q02294); test: Eurofins Lead Profiling radioligand binding; conditions: title: 30 μM
[30] = tested on: 72 GPCRs, ion channels and transporters; test: Eurofins Lead Profiling panel (whole panel); type: binding; conditions: for ancillary pharmacology panel result: 72 GPCRs, ion channels and transporters
[31] = tested on: Sodium Channel, Site 2; test: Eurofins Lead Profiling radioligand binding; set-up: species or system Rat; conditions: title: 30 μM
[32] = target: T1, TREK-1; test: human TREK-1 MPC assay; type: cell-based; set-up: host or cells: CHO

Transporter, Norepinephrine (NET), sequence (P23975 whole entry): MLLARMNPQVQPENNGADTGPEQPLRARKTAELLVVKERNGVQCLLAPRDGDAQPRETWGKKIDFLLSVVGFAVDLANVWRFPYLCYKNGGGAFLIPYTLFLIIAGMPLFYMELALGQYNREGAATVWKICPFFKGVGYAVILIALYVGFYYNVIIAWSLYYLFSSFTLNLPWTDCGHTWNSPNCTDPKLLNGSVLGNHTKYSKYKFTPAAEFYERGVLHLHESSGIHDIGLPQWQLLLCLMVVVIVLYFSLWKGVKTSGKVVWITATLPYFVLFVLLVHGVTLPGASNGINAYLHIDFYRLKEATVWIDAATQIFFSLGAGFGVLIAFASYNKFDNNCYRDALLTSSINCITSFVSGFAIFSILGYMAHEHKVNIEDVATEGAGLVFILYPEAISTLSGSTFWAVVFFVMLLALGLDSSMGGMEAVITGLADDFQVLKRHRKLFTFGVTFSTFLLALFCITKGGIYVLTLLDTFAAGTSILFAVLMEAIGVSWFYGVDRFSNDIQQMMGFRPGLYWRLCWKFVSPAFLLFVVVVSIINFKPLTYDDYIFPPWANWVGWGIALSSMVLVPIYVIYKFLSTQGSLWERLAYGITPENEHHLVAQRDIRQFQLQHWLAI
hERG potassium channel, sequence (Q12809 whole entry): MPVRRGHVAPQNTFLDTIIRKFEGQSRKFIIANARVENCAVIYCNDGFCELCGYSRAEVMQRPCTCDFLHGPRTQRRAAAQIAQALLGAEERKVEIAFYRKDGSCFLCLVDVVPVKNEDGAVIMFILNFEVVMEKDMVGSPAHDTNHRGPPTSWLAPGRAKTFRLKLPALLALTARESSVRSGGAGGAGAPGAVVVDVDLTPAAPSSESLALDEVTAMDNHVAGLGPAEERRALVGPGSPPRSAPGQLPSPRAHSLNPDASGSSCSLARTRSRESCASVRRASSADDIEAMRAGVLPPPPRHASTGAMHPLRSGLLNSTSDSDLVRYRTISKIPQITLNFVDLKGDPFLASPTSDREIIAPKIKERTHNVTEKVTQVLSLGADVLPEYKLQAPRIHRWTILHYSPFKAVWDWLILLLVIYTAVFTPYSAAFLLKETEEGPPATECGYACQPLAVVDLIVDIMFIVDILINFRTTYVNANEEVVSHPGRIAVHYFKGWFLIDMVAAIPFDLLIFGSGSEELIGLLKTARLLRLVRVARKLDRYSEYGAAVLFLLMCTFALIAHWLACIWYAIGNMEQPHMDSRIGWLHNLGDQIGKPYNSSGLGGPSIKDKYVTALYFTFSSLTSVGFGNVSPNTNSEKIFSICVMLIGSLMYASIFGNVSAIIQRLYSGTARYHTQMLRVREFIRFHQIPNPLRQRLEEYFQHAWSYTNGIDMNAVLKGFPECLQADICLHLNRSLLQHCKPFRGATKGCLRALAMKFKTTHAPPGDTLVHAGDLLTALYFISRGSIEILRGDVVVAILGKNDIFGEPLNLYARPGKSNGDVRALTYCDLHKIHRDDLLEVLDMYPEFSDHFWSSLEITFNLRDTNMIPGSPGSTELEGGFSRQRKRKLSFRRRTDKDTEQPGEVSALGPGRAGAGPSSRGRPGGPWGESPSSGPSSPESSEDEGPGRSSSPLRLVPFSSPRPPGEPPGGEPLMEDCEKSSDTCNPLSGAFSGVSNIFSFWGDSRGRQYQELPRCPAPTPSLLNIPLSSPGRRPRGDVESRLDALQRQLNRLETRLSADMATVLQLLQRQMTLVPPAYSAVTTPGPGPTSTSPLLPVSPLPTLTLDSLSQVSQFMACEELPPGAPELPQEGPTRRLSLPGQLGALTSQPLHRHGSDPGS
Bradykinin B2, sequence (P30411 whole entry): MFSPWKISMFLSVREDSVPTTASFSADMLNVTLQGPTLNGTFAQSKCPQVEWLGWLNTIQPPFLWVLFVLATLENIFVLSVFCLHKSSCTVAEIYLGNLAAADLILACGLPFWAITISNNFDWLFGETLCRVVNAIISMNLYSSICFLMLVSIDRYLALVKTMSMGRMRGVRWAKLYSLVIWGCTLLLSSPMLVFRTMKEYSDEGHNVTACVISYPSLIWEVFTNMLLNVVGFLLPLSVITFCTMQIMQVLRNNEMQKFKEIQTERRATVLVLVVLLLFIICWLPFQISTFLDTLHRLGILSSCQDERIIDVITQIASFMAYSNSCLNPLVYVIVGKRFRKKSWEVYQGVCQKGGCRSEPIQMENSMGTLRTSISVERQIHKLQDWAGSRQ
Histamine H3, sequence (Q9Y5N1 whole entry): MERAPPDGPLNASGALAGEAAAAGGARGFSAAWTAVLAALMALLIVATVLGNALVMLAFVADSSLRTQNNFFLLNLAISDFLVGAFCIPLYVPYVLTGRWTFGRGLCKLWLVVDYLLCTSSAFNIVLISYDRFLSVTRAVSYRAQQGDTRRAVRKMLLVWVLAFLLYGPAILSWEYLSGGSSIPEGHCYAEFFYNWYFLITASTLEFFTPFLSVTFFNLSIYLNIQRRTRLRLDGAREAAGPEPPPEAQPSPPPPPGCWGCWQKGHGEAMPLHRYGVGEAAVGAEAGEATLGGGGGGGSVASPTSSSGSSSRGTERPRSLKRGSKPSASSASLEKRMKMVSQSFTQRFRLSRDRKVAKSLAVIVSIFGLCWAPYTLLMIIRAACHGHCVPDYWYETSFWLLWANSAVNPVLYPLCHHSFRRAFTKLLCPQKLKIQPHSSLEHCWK
Platelet Activating Factor (PAF), sequence (P25105 whole entry): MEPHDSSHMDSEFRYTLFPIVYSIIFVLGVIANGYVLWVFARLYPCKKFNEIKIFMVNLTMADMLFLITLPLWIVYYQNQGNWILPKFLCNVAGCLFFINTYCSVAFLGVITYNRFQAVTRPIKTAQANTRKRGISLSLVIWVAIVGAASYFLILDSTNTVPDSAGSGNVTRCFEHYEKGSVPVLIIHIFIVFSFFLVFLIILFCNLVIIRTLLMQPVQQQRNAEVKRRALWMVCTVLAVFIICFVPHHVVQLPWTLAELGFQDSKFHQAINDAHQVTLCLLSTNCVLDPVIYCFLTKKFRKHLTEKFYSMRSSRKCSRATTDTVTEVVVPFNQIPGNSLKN
Endothelin ETB, sequence (P24530 27-442): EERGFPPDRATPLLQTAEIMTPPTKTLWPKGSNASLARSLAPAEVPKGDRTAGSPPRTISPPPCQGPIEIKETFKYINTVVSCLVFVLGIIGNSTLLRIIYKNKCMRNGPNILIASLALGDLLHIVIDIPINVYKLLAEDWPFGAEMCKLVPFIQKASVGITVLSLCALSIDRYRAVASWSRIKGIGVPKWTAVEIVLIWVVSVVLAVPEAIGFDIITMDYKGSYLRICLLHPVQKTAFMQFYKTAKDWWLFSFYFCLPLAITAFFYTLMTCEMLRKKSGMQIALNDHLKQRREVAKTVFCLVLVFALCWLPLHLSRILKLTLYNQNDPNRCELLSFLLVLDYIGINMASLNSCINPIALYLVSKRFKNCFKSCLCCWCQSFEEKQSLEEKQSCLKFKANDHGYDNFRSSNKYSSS
Muscarinic M1, sequence (P11229 whole entry): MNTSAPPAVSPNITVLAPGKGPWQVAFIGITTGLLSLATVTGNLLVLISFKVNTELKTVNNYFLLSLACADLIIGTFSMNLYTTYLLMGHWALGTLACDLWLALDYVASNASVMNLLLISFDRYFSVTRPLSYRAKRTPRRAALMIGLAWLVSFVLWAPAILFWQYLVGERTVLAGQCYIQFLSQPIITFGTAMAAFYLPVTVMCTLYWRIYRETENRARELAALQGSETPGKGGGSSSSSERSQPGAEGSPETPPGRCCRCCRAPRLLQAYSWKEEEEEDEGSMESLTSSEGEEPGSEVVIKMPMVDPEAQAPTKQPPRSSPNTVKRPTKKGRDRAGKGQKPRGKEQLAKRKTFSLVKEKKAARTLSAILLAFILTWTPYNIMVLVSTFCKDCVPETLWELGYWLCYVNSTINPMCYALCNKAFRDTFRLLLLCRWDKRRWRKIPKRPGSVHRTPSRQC
Bradykinin B1, sequence (P46663 whole entry): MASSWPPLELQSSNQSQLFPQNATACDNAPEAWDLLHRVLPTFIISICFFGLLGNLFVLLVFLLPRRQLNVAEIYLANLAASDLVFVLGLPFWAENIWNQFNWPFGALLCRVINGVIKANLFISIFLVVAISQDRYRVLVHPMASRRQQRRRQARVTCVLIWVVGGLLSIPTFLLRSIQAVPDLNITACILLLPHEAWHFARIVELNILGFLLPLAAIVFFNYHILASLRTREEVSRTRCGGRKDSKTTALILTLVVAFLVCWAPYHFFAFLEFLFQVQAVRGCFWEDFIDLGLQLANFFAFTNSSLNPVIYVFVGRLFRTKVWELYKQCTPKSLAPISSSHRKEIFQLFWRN

Q: How did the EC50 [1] turn out when `CS(=O)(=O)Nc1ccc(C(=O)NCc2ccc(Cl)cc2Cl)cc1` [Compound 13] was run?
A: 7.4 µM

Q: And the Emax [1]?
A: 99%

Q: What does the source list for `O=C(NCc1ccc(OC(F)(F)F)cc1F)c1ccc2ncnn2c1` [Compound 19b]?
A: inhibition [2]: 2%; % Inhibition at 10 µM [3]: 0%; inhibition [4]: 14%; inhibition [5]: 29%; inhibition [6]: 1%; inhibition [7]: 14%; activity at TREK-1 in 86Rb flux panel [8]: micromolar activity; inhibition at 10 µM [9]: 4%; inhibition [10]: 17%; inhibition [11]: 2%; inhibition at 10 µM [12]: 5%; inhibition at 10 µM [13]: 4%; inhibition [14]: 15%; inhibition [15]: 21%; inhibition [16]: -12%; inhibition [17]: 14%; inhibition [18]: 5%; inhibition [19]: 44%; % Inhibition at 10 µM [20]: -16%; inhibition [21]: 12%; % Inhibition at 10 µM [22]: 13%; inhibition [23]: 3%; % Inhibition at 10 µM [24]: 0%; inhibition [25]: -6%; % Inhibition at 10 µM [26]: 13%; % Inhibition at 10 µM [27]: 0%; inhibition [28]: 1%; inhibition [29]: -1%; displacement of any radioligand in the panel ([30]; 30 μM, 72 targets): ≤ 50%; ancillary pharmacology panel result [30]: clean ancillary pharmacology; ancillary pharmacology panel result ([30]; listed as ONO-2920632): no significant activity; % Inhibition at 10 µM [31]: 15%

Q: Which EC50 [32] does the source give for `O=C(NCc1ccc(OC(F)(F)F)cc1Cl)c1ccc2nncn2c1` [Compound 20] here?
A: 0.33 µM

Q: What about the Emax [32] of the same molecule?
A: 172%
